PubChem BioAssay (NCI)
Several values for one entry are separate records, joined by “and”; a condition that tells them apart may be missing. Equal entries are not always repeated.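 Protocol summary: plate cells (96-well), add compound at 5 concentrations, incubate 48 h, interpolate endpoints linearly. At the GI50, growth is halved. TGI is the concentration that stops growth completely.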

Assays:
Experiment in all cases: NCI tumour cell line growth inhibition, 48 h
[1] = test system: LOX IMVI melanoma
[2] = test system: K-562 leukemia
[3] = test system: KM12 colon
[4] = test system: UO-31 renal
[5] = test system: RXF 393 renal
[6] = test system: NCI-H226 lung
[7] = test system: M14 melanoma
[8] = test system: SNB-75 CNS
[9] = test system: NCI-H460 lung
[10] = test system: MDA-MB-231 breast

Compound	TGI [1] [µM]	TGI [2] [µM]	TGI [3] [µM]	TGI [4]	TGI [5]	TGI [6] [µM]	TGI [7] [µM]	TGI [8] [µM]	TGI [9]	GI50 [1] [µM]	GI50 [2] [µM]	GI50 [3] [µM]	GI50 [9] [µM]	GI50 [4] [µM]	GI50 [5] [µM]	GI50 [6] [µM]	GI50 [7] [µM]	GI50 [8] [µM]	TGI [10] [µM]	GI50 [10] [µM]
O=c1c2ccccc2c(=O)n2n1CC=CC2	> 100	> 100	> 100	> 100 µM	> 100 µM	> 100	> 100	> 100	–	–	–	–	–	–	–	–	–	–	–	–
COc1ccc2c(c1)[n+]([O-])c(-c1ccc(OC)c(OC)c1)c(N)[n+]2[O-]	> 100	> 100	> 100	> 100 µM	–	> 100	> 100	> 100	> 100 µM	–	–	–	–	–	–	–	–	–	–	–
O=C1NC2(CCCCCC2)C2CCCCCCC12O (configuration not stated)	> 100	> 100	> 100	> 100 µM	> 100 µM	–	> 100	> 100	> 100 µM	–	–	–	–	–	–	–	–	–	–	–
N.N.N.N.N.[Cl-].[Co+3].c1ccc(-c2nn[n-]n2)cc1	> 100	> 100	> 100	> 100 µM	> 100 µM	> 100	> 100	> 100	> 100 µM	> 100	> 100	> 100	> 100	> 100	> 100	> 100	> 100	> 100	–	–
COC(=O)c1ccccc1OCc1cc(=O)oc2ccc(C)cc12	> 100	> 100	> 100	> 100 µM	–	> 100	> 100	45.5	> 100 µM	–	–	–	–	–	–	–	–	–	> 100	–
COCC(O)Cn1ccnc1[N+](=O)[O-] (configuration not stated)	> 100	> 100	> 100	> 100 µM	–	> 100	> 100	–	> 100 µM	–	–	–	–	–	–	–	–	–	–	–
Cc1oc2c(C)c3oc(=O)cc(C)c3cc2c1CN1C(=O)C2OCCOCCOCCOCCOCCO[C@H]2C1=O (some centres not stated)	> 100	> 100	> 100	> 100 µM	> 100 µM	> 100	> 100	> 100	> 100 µM	–	–	–	–	–	–	–	–	–	–	–
C[C@]12CCc3sc(NCCc4ccccc4)nc3C1=CC[C@@H]1[C@@H]2CC[C@]2(C)C(=O)CC[C@@H]12	3.17	> 100	> 100	25.1 µM	4.49 µM	6.57	> 100	–	> 100 µM	1.7	2.89	3.6	4.47	4.03	1.73	2.42	3.63	–	21.4	3.4
C1=CC=C2NCCCCCCCNC3=CC=CC=CC3=NCCCCCCCN=C2C=C1	> 100	> 100	> 100	> 100 µM	39.5 µM	> 100	–	67.9	> 100 µM	–	–	–	–	–	–	–	–	–	–	–
CC(=O)OC[C@]12CC[C@@H](C(=O)CBr)[C@@H]1[C@H]1CC[C@@H]3[C@@]4(C)CCCNC(C)(C)[C@@H]4CC[C@@]3(C)[C@]1(C)CC2	3.31	8.33	27.3	4.04 µM	3.64 µM	–	6.66	32.8	21.8 µM	1.76	2.61	11.8	7.66	1.71	1.83	–	2.38	15.4	17.9	3.72
CN1CCN(CCOc2ccc(-c3cnc4c(-c5ccc(C(F)(F)F)cc5)cnn4c3)cc2)CC1	3.15	–	3.21	2.65 µM	3.07 µM	–	3.25	2.88	2.44 µM	1.62	–	1.71	1.16	1.34	1.55	–	1.7	1.5	2.95	1.5
OCC(O)C(Cl)CCl (configuration not stated)	–	> 100	> 100	> 100 µM	–	> 100	> 100	> 100	> 100 µM	–	–	–	–	–	–	–	–	–	> 100	–
OCC1C(/C=C/c2ccoc2)ON2CCCC12 (configuration not stated)	> 100	–	> 100	> 100 µM	> 100 µM	> 100	> 100	> 100	> 100 µM	–	–	–	–	–	–	–	–	–	–	–
O=C(CC(=O)C1=CNc2ccccc2S1)C(=O)Nc1ccc(Cl)cc1	> 50	> 50	> 50	> 50 µM	> 50 µM	> 50	> 50	> 50	> 50 µM	–	–	–	–	–	–	–	–	–	–	–
COc1ccc2c(=O)cc(-c3ccncc3)oc2c1OC	> 100	> 100	96.2	67.6 µM	69.6 µM	–	39	41	72.8 µM	–	–	–	–	–	–	–	–	–	> 100	–
CC(C)CCCC(C)[C@H]1CCC2[C@@H]3CCC4Nc5nocc5C[C@]4(C)C3CC[C@@]21C (some centres not stated)	4.95	38.3	38.4	27.9 µM	28.5 µM	37.3	41.8	33.8	47.1 µM	–	–	–	–	–	–	–	–	–	–	–

Compound	TGI [1] [µM]	TGI [2] [µM]	TGI [3] [µM]	TGI [4]	TGI [5]	TGI [6] [µM]	TGI [7] [µM]	TGI [8] [µM]	TGI [9]	GI50 [1] [µM]	GI50 [2] [µM]	GI50 [3] [µM]	GI50 [9] [µM]	GI50 [4] [µM]	GI50 [5] [µM]	GI50 [6] [µM]	GI50 [7] [µM]	GI50 [8] [µM]	TGI [10] [µM]	GI50 [10] [µM]
O=C(O/C(=C(/N=Nc1ccccc1)c1ccccc1)c1ccccc1)c1ccccc1	–	> 100	> 100	> 100 µM	> 100 µM	> 100	–	> 100	> 100 µM	–	–	–	–	–	–	–	–	–	–	–
CCOC1=C2C(=O)OC(=O)C2C2CCCCC2=C1 (configuration not stated)	> 100	> 100	> 100	> 100 µM	> 100 µM	–	> 100	> 100	> 100 µM	–	–	–	–	–	–	–	–	–	–	–
Cc1cc2c(C)nn(Cc3ccccc3)c2c(C(N)=O)c1C	> 100	> 100	> 100	> 100 µM	–	–	> 100	58.8	> 100 µM	–	–	–	–	–	–	–	–	–	–	–
O=C1Nc2nc3ccccc3n2N=C2CCCC12 (configuration not stated)	> 100	> 100	> 100	> 100 µM	> 100 µM	–	> 100	> 100	> 100 µM	–	–	–	–	–	–	–	–	–	–	–
COC1/C=C/C(C)C(C(C)C(OC)C(C)CCC(=O)C(C)C(C/C=C/N(C)C=O)OC)OC(=O)/C=C/C=C(\C)CC(OC)CC2=CC(=O)O[C@H](C2)C(C)C(OC)CC(OC)/C=C/C(C)C(OC)C1 (some centres not stated)	–	–	–	0.0943 µM and 0.0265 µM	0.141 µM and 0.0376 µM	0.129	0.0686	–	0.118 µM and 0.097 µM	–	0.00105	0.00696	0.01	0.0294	0.0378	0.0215	0.0215	–	0.0584	0.0114
CC(=O)C(=Cc1ccc(C=C(C(C)=O)C(C)=O)cc1)C(C)=O	1.91	6.12	6.18	3.1 µM	3.51 µM	7.8	3.59	–	7.38 µM	–	–	–	–	–	–	–	–	–	4.4	–
C[C@]12CCC(=O)C=C1CC[C@@H]1C2CC[C@]2(C)Nc3c(cnn3-c3ccccc3)CC12 (some centres not stated)	–	> 100	> 10	> 100 µM	> 100 µM	> 100	> 100	> 100	> 100 µM	–	–	–	–	–	–	–	–	–	–	–
COC1OC(CBr)C(OC(=O)c2ccccc2)C(O)C1Br (configuration not stated)	> 100	> 100	> 100	–	> 100 µM	> 100	> 100	–	> 100 µM	–	–	–	–	–	–	–	–	–	–	–
O=C1C2C3C=C4c5ccccc5N(c5ccccc5)C4(C2C(=O)N1c1ccc(Cl)cc1)[C@H]1C(=O)N(c2ccc(Cl)cc2)C(=O)[C@@H]31 (some centres not stated)	> 100	> 100	> 100	> 100 µM	> 100 µM	> 100	> 100	> 100	> 100 µM	–	–	–	–	–	–	–	–	–	–	–
C1COCCN1.C1COCCN1.NC1CCCCC1N.[Cl-].[Pt+2] (configuration not stated)	> 100	> 100	> 100	> 100 µM	> 100 µM	> 100	> 100	> 100	> 100 µM	> 100	> 100	> 100	> 100	> 100	> 100	> 100	> 100	> 100	–	–
Cc1ccc(SSc2ccc(C)cc2C(=O)O)c(C(=O)O)c1	> 100	> 100	> 100	> 100 µM	> 100 µM	> 100	–	–	> 100 µM	–	–	–	–	–	–	–	–	–	–	–
CCn1cc(C(=O)N/N=C/c2ccccc2)c(=O)c2cc(F)c(N3CCNC(C)C3)c(F)c21 (configuration not stated)	–	–	–	2.89 µM	–	–	3.26	–	–	–	–	–	–	1.55	–	–	1.78	–	–	–
COc1cccc2c1ccc1nc3cccc(C(=O)N[C@H](C)CN(C)C)c3nc12	0.55	4.77	2.33	–	0.35 µM	–	0.339	1.16	0.221 µM	0.0474	0.0474	0.0724	0.0354	–	0.0984	–	0.138	0.205	3.25	0.178
Cc1cc(NCCCCCCNc2cc(C)nc3cc(N(C)C)ccc23)c2ccc(N(C)C)cc2n1	–	> 100	> 100	> 100 µM	> 100 µM	–	> 100	> 100	> 100 µM	–	–	–	–	–	–	–	–	–	–	–
c1ccc(C(c2ccccc2)c2cccnc2)cc1	> 100	> 100	> 100	> 100 µM	–	> 100	> 100	> 100	> 100 µM	–	–	–	–	–	–	–	–	–	–	–
